In ChEMBL document CHEMBL1201862, “PubChem BioAssay data set” (2004):
Active and inactive are the calls of the source.

Assays:
[1] = molecular target: Tyrosine-protein kinase JAK2 (Homo sapiens, UniProt O60674); type: functional;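 further: JAK2 tested as one member of a kinase panel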
[2] = molecular target: Tyrosine-protein kinase BTK (Homo sapiens, UniProt Q06187); type: functional
INS1 = assay: beta cell apoptosis inhibitors, cytokine rescue, dose response, luminescence, retest (AID 449756); type: functional, cell-based; settings: Rattus norvegicus;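 further: cell death triggered by IL-1 beta plus TNF-alpha plus IFN-gamma mixture; protective hits raise ATP signal compared with cytokine alone wells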
[3] = NIH-3T3 fibroblast cytotoxicity, dose response, cytotoxicity control, cell-based, fluorescence, Alamar Blue, secondary assay (AID 2327); type: functional;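 further: NIH-3T3 mouse fibroblasts cultured with fluconazole at 8 µg/mL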
[4] = molecular target: T1, RNA-binding protein pos-1 (Caenorhabditis elegans, UniProt G5EF15); assay: inhibitors of POS-1/mex-3 RNA binding, dose response, biochemical, fluorescence polarization (AID 1964);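 further: purified POS-1 fused to maltose binding protein made in E. coli; potency of compounds blocking POS-1 binding to fluorescent RNA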
T1 sequence (G5EF15 whole entry): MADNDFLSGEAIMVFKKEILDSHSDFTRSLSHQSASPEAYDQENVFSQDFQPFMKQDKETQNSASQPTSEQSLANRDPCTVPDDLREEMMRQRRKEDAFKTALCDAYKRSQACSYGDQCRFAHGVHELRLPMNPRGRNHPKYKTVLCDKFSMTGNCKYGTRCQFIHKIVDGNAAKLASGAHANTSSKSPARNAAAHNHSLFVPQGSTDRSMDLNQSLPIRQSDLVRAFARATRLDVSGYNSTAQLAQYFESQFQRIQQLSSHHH

[5] = C. albicans growth with fluconazole, confirmation, fluorescence, retest (AID 2467); type: functional, cell-based
[6] = molecular target: Polyadenylate-binding protein 1 (Homo sapiens, UniProt P11940); assay: PABP1 MLLE–PAM2 interaction inhibitors, dose response, miRNA deadenylation inhibitor project, biochemical, fluorescence polarization, Cy5-PAM2 peptide, secondary (AID 602260); type: functional; settings: read-out: IC50_Mean
[7] = molecular target: Ribosomal protein S6 kinase alpha-3 (Homo sapiens, UniProt P51812); type: functional;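 further: measured within a kinome-wide profiling panel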
[8] = molecular target: Serine/threonine-protein phosphatase PP1-alpha catalytic subunit (Homo sapiens, UniProt P62136); assay: PP1 phosphatase inhibitors, dose response, biochemical, fluorescence (AID 2394)
Caspase-3 = molecular target: T2, Caspase-3 (Homo sapiens, UniProt P42574); assay: Dose-response confirmation of uHTS inhibitor hits of Sentrin-Specific Protease 8 in a Caspase-3 Fluorescence assay.; type: functional
T2 sequence (P42574 whole entry): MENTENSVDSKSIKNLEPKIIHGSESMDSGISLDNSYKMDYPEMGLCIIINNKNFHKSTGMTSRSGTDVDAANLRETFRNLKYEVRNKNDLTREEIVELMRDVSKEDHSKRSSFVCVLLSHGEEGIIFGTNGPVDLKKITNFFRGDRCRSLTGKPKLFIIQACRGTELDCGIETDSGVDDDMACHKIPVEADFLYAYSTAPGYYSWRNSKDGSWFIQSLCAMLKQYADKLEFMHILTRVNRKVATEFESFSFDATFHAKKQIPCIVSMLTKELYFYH

[9] = molecular target: T3, Histone-lysine N-methyltransferase NSD2 (Homo sapiens, UniProt O96028); type: biochemical
T3 sequence (O96028 whole entry): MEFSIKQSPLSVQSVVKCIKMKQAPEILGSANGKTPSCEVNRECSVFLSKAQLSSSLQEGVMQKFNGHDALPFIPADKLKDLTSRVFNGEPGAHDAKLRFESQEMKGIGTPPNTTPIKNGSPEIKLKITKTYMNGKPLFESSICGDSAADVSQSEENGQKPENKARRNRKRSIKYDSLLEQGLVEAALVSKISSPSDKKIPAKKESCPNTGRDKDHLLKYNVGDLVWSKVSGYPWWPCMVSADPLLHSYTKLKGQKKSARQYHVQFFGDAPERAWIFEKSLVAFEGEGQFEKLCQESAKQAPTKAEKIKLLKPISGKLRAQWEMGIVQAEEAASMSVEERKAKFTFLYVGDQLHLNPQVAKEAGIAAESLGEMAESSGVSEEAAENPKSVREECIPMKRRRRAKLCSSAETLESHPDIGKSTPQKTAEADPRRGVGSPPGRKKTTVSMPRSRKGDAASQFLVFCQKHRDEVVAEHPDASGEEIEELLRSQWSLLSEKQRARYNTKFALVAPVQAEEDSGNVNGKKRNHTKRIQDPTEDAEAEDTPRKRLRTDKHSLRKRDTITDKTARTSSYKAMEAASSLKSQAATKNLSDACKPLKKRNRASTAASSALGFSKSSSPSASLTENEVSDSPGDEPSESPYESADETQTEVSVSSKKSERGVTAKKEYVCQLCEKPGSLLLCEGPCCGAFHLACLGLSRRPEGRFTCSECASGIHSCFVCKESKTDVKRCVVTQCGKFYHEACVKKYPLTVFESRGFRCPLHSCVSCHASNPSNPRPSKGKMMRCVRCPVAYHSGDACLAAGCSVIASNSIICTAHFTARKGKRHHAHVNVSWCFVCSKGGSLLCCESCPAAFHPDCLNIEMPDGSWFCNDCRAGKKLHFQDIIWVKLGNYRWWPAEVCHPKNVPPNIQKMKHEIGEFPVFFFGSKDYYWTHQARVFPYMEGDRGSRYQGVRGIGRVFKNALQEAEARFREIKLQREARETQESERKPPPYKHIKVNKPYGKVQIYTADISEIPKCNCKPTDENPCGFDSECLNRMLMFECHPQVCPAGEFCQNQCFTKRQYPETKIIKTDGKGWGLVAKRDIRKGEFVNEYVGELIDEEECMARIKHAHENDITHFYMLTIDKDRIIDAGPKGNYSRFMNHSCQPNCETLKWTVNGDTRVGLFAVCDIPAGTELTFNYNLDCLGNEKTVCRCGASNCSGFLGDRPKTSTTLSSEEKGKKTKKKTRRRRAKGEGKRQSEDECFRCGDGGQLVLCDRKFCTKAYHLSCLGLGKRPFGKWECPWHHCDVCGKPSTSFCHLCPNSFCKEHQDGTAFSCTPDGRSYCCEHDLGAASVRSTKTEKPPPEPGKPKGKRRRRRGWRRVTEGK

[10] = HepG2 cell cytotoxicity, dose response, cytotoxicity control, dry powder samples (AID 720568); type: functional, cell-based
Caspase-6 = molecular target: T4, Caspase-6 (Homo sapiens, UniProt P55212); assay: human caspase-6 inhibitors, dose response, biochemical, VEID-R110 fluorescence, cherry-pick (AID 720632)
T4 sequence (P55212 whole entry): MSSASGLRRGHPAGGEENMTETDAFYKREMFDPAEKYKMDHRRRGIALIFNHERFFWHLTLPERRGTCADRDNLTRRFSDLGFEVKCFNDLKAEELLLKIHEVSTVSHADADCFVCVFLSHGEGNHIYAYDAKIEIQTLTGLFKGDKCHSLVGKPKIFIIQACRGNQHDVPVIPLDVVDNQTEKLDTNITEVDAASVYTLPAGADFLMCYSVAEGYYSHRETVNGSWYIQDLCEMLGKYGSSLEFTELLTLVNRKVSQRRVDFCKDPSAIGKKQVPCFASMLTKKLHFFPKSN

Sequence of Tyrosine-protein kinase JAK2 (O60674 whole entry): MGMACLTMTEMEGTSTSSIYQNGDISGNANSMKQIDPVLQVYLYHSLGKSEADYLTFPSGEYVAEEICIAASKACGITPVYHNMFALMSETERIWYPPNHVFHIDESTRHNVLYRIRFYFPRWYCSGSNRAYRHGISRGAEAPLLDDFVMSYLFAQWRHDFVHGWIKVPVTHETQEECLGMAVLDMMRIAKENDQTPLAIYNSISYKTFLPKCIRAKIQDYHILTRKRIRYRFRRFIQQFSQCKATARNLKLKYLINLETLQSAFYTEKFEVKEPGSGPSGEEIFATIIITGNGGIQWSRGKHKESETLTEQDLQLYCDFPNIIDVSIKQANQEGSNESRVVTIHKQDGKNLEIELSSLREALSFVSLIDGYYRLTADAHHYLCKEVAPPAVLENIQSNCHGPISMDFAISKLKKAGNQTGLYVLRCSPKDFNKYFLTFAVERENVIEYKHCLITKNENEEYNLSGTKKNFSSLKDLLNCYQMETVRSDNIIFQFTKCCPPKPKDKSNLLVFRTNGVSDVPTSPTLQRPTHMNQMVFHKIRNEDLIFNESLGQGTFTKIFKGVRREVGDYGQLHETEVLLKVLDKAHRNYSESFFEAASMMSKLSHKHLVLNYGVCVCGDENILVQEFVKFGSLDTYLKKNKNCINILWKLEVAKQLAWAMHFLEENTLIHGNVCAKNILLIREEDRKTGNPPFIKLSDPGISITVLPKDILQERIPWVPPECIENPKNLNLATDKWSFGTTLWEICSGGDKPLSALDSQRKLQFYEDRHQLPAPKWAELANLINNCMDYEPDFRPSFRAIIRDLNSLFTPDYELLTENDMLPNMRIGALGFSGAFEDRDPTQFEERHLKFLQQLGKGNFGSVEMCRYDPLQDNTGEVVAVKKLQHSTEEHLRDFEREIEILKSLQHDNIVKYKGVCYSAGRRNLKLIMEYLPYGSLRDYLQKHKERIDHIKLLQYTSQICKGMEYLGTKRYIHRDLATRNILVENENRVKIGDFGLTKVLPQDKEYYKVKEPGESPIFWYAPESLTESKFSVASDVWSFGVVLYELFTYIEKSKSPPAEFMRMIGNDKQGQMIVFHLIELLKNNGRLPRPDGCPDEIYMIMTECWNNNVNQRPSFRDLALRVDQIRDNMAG
Sequence of Tyrosine-protein kinase BTK (Q06187 whole entry): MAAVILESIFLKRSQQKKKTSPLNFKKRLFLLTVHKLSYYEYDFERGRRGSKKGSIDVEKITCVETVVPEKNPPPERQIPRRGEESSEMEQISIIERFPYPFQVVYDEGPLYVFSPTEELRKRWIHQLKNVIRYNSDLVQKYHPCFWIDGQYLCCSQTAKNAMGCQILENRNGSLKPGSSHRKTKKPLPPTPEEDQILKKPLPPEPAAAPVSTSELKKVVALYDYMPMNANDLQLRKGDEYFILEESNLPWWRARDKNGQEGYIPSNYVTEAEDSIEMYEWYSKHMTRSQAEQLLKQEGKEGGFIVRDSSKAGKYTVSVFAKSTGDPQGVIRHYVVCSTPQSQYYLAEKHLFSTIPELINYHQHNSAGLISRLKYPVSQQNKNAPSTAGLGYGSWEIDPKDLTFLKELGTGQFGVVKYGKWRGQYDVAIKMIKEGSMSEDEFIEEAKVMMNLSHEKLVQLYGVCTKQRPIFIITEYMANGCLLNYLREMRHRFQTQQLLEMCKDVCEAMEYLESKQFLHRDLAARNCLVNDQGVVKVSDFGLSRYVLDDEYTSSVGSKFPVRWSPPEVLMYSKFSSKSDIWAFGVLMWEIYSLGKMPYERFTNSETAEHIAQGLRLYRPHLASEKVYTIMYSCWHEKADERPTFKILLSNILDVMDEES
Sequence of Ribosomal protein S6 kinase alpha-3 (P51812 whole entry): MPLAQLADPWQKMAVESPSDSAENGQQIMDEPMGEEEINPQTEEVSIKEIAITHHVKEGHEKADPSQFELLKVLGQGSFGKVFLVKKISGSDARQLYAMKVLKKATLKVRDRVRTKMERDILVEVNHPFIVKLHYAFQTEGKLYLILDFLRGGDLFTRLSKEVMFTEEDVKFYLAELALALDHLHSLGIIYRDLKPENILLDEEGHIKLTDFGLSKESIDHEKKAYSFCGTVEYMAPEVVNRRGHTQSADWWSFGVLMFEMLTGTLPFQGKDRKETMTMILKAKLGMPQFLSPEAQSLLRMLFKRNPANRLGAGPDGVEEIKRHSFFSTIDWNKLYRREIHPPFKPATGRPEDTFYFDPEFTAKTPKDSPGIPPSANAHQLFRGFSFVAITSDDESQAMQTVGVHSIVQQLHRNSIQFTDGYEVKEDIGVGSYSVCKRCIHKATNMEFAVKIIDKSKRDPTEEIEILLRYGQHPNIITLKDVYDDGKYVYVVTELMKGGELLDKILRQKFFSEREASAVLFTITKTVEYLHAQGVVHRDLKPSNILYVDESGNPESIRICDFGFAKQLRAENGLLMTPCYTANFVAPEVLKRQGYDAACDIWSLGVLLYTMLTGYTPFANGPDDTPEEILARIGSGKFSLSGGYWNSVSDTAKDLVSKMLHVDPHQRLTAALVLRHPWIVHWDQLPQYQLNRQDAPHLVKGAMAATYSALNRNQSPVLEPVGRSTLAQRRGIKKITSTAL
Sequence of Polyadenylate-binding protein 1 (P11940 whole entry): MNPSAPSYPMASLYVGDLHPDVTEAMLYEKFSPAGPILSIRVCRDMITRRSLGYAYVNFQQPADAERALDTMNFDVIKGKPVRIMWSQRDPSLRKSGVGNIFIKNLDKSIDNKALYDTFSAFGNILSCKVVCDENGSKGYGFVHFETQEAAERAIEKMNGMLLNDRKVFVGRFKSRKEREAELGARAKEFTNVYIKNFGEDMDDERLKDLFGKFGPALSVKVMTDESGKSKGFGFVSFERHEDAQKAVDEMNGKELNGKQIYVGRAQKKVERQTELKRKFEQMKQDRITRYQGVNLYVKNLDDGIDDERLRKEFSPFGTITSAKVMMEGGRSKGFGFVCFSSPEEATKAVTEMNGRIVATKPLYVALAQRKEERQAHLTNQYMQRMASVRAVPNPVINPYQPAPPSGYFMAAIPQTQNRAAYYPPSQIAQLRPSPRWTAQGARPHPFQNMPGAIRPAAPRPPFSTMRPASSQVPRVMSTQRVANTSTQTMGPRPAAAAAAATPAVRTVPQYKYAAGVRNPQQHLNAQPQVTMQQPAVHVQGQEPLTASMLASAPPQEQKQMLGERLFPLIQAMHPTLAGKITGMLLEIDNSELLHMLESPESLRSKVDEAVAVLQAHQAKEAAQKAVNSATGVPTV
Sequence of Serine/threonine-protein phosphatase PP1-alpha catalytic subunit (P62136 whole entry): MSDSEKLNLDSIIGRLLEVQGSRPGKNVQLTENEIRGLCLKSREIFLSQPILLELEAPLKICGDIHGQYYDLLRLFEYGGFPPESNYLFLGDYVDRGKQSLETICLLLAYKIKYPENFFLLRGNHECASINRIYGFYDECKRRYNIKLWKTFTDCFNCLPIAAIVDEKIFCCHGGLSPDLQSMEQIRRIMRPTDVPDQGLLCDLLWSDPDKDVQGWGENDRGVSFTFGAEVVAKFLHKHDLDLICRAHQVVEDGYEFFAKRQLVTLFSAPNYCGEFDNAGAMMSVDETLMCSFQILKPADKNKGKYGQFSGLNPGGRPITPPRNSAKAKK

Structure (SMILES): NC(COc1cncc(-c2ccc3c(c2)C(=Cc2ccc[nH]2)C(=O)N3)c1)Cc1ccccc1 (configuration not stated)
- Ki [1]: 0.0631 µM (active)
- Ki [2]: 3.98 µM (active)

Structure (SMILES): O=C(NC1=C(Nc2ccc(F)cc2)C(=O)c2ccccc2C1=O)c1ccc(Cl)cc1
- AC50 (INS1): 5.26 µM (active)

Structure (SMILES): O=C(O)c1ccc2c(c1)[C@@H]1C=CC[C@@H]1[C@H](c1ccccn1)N2
- EC50 [3]: > 150 µM (inactive)
- EC50 [4]: 4.61 µM (inconclusive)
- EC50 [5]: > 38 µM (not active)
- IC50 [6]: > 66 µM (inactive)

Structure (SMILES): O=C1Nc2cc(-c3ccc(O)cc3)ccc2C1=Cc1ccc[nH]1
- Ki [7]: 0.0316 µM (active)
- Ki [1]: 0.00501 µM (active)
- Ki [2]: > 6.31 µM (inactive)

Structure (SMILES): CN(C)c1cc(N/N=C\c2ccccc2)nc(N(C)C)n1
- IC50 [8]: > 67 µM (not active)
- IC50 (Caspase-3): 50.7 µM (active)
- AC50 [9]: 4.93 µM (active)

Structure (SMILES): CCN(CC)CCOc1ccc2c(c1)C(=NNC(=O)c1ccccn1)c1cc(OCCN(CC)CC)ccc1-2
- AC50 (INS1): 2.97 µM (active)
- AC50 [9]: 10.3 µM (active)
- AC50 [10]: 6.14 µM (active)

Structure (SMILES): Oc1nc(Nc2ccc(F)cc2)cc2ccccc12
- AC50 (Caspase-6): 0.942 µM (active)
